Measurements reported in patent US6737383B1, “Herbicidal oxadiazolidines” (priority 1999, dated 2004).

Experiments:
[1] = system: pigweed; assay: Test B pre/postemergence pigweed; format: in vivo, Amaranthus retroflexus
Method in brief: (§1)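 Test chemicals in a non-phytotoxic solvent mixture with surfactant were sprayed preemergence onto planted seeds and postemergence onto plants 2 to 18 cm tall (1- to 4-leaf stage). After twelve to sixteen days in a greenhouse, injury was visually rated against untreated controls from 0 (no effect) to 10 (complete control).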

[2] = system: corn; assay: Test B pre/postemergence corn; format: in vivo, Zea mays
Method in brief: as §1

[3] = system: morningglory; assay: Test B pre/postemergence morningglory; format: in vivo, Ipomoea hederacea
Method in brief: as §1

[4] = system: velvetleaf; assay: Test B pre/postemergence velvetleaf; format: in vivo, Abutilon theophrasti
Method in brief: as §1

[5] = system: smallflower flatsedge; assay: Test B flood test smallflower flatsedge; format: in vivo, Cyperus difformis
Method in brief: (§2)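 Read-out is a visual response score from 0 (no effect) to 10 (complete control), assigned by comparison with untreated controls. Treatment was applied at the 2-leaf stage, and plants stayed in the greenhouse for twelve to sixteen days before scoring.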

[6] = system: giant foxtail; assay: Test B pre/postemergence giant foxtail; format: in vivo, Setaria faberii
Method in brief: as §1

[7] = system: cocklebur; assay: Test B pre/postemergence cocklebur; format: in vivo, Xanthium strumarium
Method in brief: as §1

[8] = system: bamyardgrass; assay: Test B flood test barnyardgrass; format: in vivo, Echinochloa crus-galli
Method in brief: as §2

[9] = system: surinam grass; assay: Test B pre/postemergence surinam grass; format: in vivo, Brachiaria decumbens
Method in brief: as §1

[10] = system: rice; assay: Test B flood test rice; format: in vivo, Oryza sativa
Method in brief: as §2

[11] = system: wheat; assay: Test B pre/postemergence wheat; format: in vivo, Triticum aestivum
Method in brief: as §1

[12] = system: wild oat; assay: Test B pre/postemergence wild oat; format: in vivo, Avena fatua
Method in brief: as §1

[13] = system: soybean; assay: Test B pre/postemergence soybean; format: in vivo, Glycine max
Method in brief: as §1

[14] = system: crabgrass; assay: Test B pre/postemergence crabgrass; format: in vivo, Digitaria sanguinalis
Method in brief: as §1

[15] = system: bedstraw; assay: Test B pre/postemergence bedstraw; format: in vivo, Galium aparine
Method in brief: as §1

[16] = system: blackgrass; assay: Test B pre/postemergence blackgrass; format: in vivo, Alopecurus myosuroides
Method in brief: as §1

[17] = Postemergence, Rate 250 g/ha, scale 0 to 10
[18] = Postemergence, Rate 500 g/ha, scale of 0 to 10 where 0 is no effect and 10 is complete control
[19] = Preemergence, Rate 62 g/ha, scale of 0 to 10 where 0 is no effect and 10 is complete control
[20] = Preemergence, Rate 125 g/ha, scale of 0 to 10 where 0 is no effect and 10 is complete control
[21] = Preemergence, Rate 250 g/ha, scale 0 to 10, 0 is no effect, 10 is complete control
[22] = Preemergence, Rate 500 g/ha, scale 0 to 10, 0 is no effect, 10 is complete control
[23] = Rate 62 g/ha, Postemergence, scale 0 to 10 (0 no effect, 10 complete control)
[24] = Rate 125 g/ha, Postemergence, scale 0 to 10, 0 is no effect, 10 is complete control
[25] = Rate 62 g/ha, flood test species, Pre-emergence, visual evaluation after twelve to sixteen days
[26] = Rate 125 g/ha, under heading Pre-emergence, flood test species, visual evaluation after twelve to sixteen days
[27] = Rate 250 g/ha, Pre-emergence (flood test species), scale 0 to 10, 0 is no effect, 10 is complete control
[28] = Rate 500 g/ha, Pre-emergence, flood test species, scale 0 to 10 (0 no effect, 10 complete control)

CC(C)N(C(=O)n1oc(=O)n(C(C)Cl)c1=O)c1ccccc1 (stereo not shown) [Compound 438]
Redroot pigweed plant response rating [1, 17]: 0 | Redroot pigweed plant response rating [1, 18]: 0 | Plant response rating, Redroot pigweed [1, 19]: 2 | Plant response rating, Redroot pigweed [1, 20]: 2 | Redroot pigweed plant response rating [1, 21]: 5 | Redroot pigweed plant response rating [1, 22]: 10 | Redroot pigweed plant response rating [1, 23]: 0 | Redroot pigweed plant response rating [1, 24]: 0 | Corn plant response rating [2, 17]: 0 | Corn plant response rating [2, 18]: 3 | Plant response rating, Corn [2, 19]: 0 | Plant response rating, Corn [2, 20]: 0 | Corn plant response rating [2, 21]: 0 | Corn plant response rating [2, 22]: 0 | Corn plant response rating [2, 23]: 0 | Corn plant response rating [2, 24]: 0 | Morningglory plant response rating [3, 17]: 9 | Morningglory plant response rating [3, 18]: 10 | Plant response rating, Morningglory [3, 19]: 0 | Plant response rating, Morningglory [3, 20]: 0 | Morningglory plant response rating [3, 21]: 0 | Morningglory plant response rating [3, 22]: 2 | Morningglory plant response rating [3, 23]: 4 | Morningglory plant response rating [3, 24]: 8 | Velvetleaf plant response rating [4, 17]: 0 | Velvetleaf plant response rating [4, 18]: 0 | Plant response rating, Velvetleaf [4, 19]: 0 | Plant response rating, Velvetleaf [4, 20]: 0 | Velvetleaf plant response rating [4, 21]: 5 | Velvetleaf plant response rating [4, 22]: 6 | Velvetleaf plant response rating [4, 23]: 0 | Velvetleaf plant response rating [4, 24]: 0 | Plant response rating, S. Flatsedge (0 to 10 scale, 0 is no effect, 10 is complete control) [5, 25]: 0 | S. Flatsedge plant response rating (0 to 10 scale, 0 is no effect, 10 is complete control) [5, 26]: 0 | S. Flatsedge plant response rating [5, 27]: 0 | S. Flatsedge plant response rating [5, 28]: 0 | Giant foxtail plant response rating [6, 17]: 9 | Giant foxtail plant response rating [6, 18]: 9 | Plant response rating, Giant foxtail [6, 19]: 2 | Plant response rating, Giant foxtail [6, 20]: 7 | Giant foxtail plant response rating [6, 21]: 10 | Giant foxtail plant response rating [6, 22]: 10 | Giant foxtail plant response rating [6, 23]: 5 | Giant foxtail plant response rating [6, 24]: 5 | Cocklebur plant response rating [7, 17]: 3 | Cocklebur plant response rating [7, 18]: 3 | Plant response rating, Cocklebur [7, 19]: 0 | Plant response rating, Cocklebur [7, 20]: 0 | Cocklebur plant response rating [7, 21]: 0 | Cocklebur plant response rating [7, 22]: 0 | Cocklebur plant response rating [7, 23]: 0 | Cocklebur plant response rating [7, 24]: 0 | Plant response rating, Barnyardgrass (0 to 10 scale, 0 is no effect, 10 is complete control) [8, 25]: 0 | Barnyardgrass plant response rating (0 to 10 scale, 0 is no effect, 10 is complete control) [8, 26]: 0 | Barnyardgrass plant response rating [8, 27]: 0 | Barnyardgrass plant response rating [8, 28]: 0 | B. signalgrass plant response rating ([9]; Postemergence, Rate 250 g/ha, scale 0 to 10, 0 no effect, 10 complete control): 0 | B. signalgrass plant response rating [9, 18]: 0 | Plant response rating, B. signalgrass [9, 19]: 0 | Plant response rating, B. signalgrass [9, 20]: 0 | B. signalgrass plant response rating [9, 21]: 0 | B. signalgrass plant response rating [9, 22]: 2 | B. signalgrass plant response rating [9, 23]: 0 | B. signalgrass plant response rating [9, 24]: 0 | Plant response rating, Rice (0 to 10 scale, 0 is no effect, 10 is complete control) [10, 25]: 0 | Rice plant response rating (0 to 10 scale, 0 is no effect, 10 is complete control) [10, 26]: 0 | Rice plant response rating [10, 27]: 0 | Rice plant response rating [10, 28]: 0 | Wheat plant response rating [11, 17]: 0 | Wheat plant response rating [11, 18]: 0 | Plant response rating, Wheat [11, 19]: 0 | Plant response rating, Wheat [11, 20]: 0 | Wheat plant response rating [11, 21]: 0 | Wheat plant response rating [11, 22]: 0 | Wheat plant response rating [11, 23]: 0 | Wheat plant response rating [11, 24]: 0 | Wild oats plant response rating [12, 17]: 0 | Wild oats plant response rating [12, 18]: 0 | Plant response rating, Wild oats [12, 19]: 0 | Plant response rating, Wild oats [12, 20]: 0 | Wild oats plant response rating [12, 21]: 1 | Wild oats plant response rating [12, 22]: 3 | Wild oats plant response rating [12, 23]: 0 | Wild oats plant response rating [12, 24]: 0 | Soybean plant response rating [13, 17]: 2 | Soybean plant response rating [13, 18]: 6 | Plant response rating, Soybean [13, 19]: 0 | Plant response rating, Soybean [13, 20]: 0 | Soybean plant response rating [13, 21]: 0 | Soybean plant response rating [13, 22]: 2 | Soybean plant response rating [13, 23]: 1 | Soybean plant response rating [13, 24]: 1 | Crabgrass plant response rating [14, 17]: 8 | Crabgrass plant response rating [14, 18]: 9 | Plant response rating, Crabgrass [14, 19]: 3 | Plant response rating, Crabgrass [14, 20]: 6 | Crabgrass plant response rating [14, 21]: 9 | Crabgrass plant response rating [14, 22]: 10 | Crabgrass plant response rating [14, 23]: 2 | Crabgrass plant response rating [14, 24]: 4 | Bedstraw plant response rating [15, 17]: 0 | Bedstraw plant response rating [15, 21]: 0 | Bedstraw plant response rating [15, 23]: 0 | Bedstraw plant response rating [15, 24]: 0 | Blackgrass plant response rating [16, 17]: 2 | Blackgrass plant response rating [16, 18]: 2 | Plant response rating, Blackgrass [16, 19]: 0 | Plant response rating, Blackgrass [16, 20]: 0 | Blackgrass plant response rating [16, 21]: 2 | Blackgrass plant response rating [16, 22]: 3 | Blackgrass plant response rating [16, 23]: 0 | Blackgrass plant response rating [16, 24]: 0
